# From PubChem BioAssay (NCI)
#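 Each compound was tested at five concentrations against cells in 96-well plates for 48 hours. At the GI50, growth is halved. At the TGI there is no net growth.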
# Key:
# Assay in all cases: growth of human tumour cells (NCI), 48 h
# ACHN renal = test system: ACHN renal
# DU-145 prostate = test system: DU-145 prostate
# HT29 colon = test system: HT29 colon
# IGROV1 ovarian = test system: IGROV1 ovarian
# NCI-H226 lung = test system: NCI-H226 lung
# OVCAR-4 ovarian = test system: OVCAR-4 ovarian
# SNB-19 CNS = test system: SNB-19 CNS
# SNB-75 CNS = test system: SNB-75 CNS
# SR leukemia = test system: SR leukemia
# TK-10 renal = test system: TK-10 renal
SMILES,GI50 (ACHN renal) [µM],TGI (ACHN renal) [µM],GI50 (DU-145 prostate) [µM],TGI (DU-145 prostate) [µM],GI50 (HT29 colon) [µM],TGI (HT29 colon) [µM],GI50 (IGROV1 ovarian) [µM],TGI (IGROV1 ovarian) [µM],GI50 (NCI-H226 lung) [µM],TGI (NCI-H226 lung) [µM],GI50 (OVCAR-4 ovarian) [µM],TGI (OVCAR-4 ovarian) [µM],GI50 (SNB-19 CNS) [µM],TGI (SNB-19 CNS) [µM],GI50 (SNB-75 CNS) [µM],TGI (SNB-75 CNS) [µM],GI50 (SR leukemia) [µM],TGI (SR leukemia) [µM],GI50 (TK-10 renal) [µM],TGI (TK-10 renal) [µM]
CCN(CC)CCC(CNc1c(C)cnc2cc(Cl)ccc12)c1ccc(Cl)c(Cl)c1 (stereo unspecified),4.51,17.5,9.2,22,1.14,10.1,2.26,12.1,13.5,30.8,3.81,19.2,4.79,18,3.9,18.7,1.93,5.44,5.03,17.1
Nc1nc(N)c2cc(S(=O)(=O)c3ccccc3)ccc2n1,3.27,> 100,5.74,> 100,0.634,> 100,4.59,> 100,5.87,> 100,7.2,> 100,6.84,> 100,8.86,> 100,–,–,4.36,> 100
Cc1nc2sc(C(=O)Nc3cccc(Cl)c3C)c(N)c2cc1C(O)c1ccccc1 (stereo unspecified),0.0881,14.8,0.0454,8.5,0.0355,8.35,0.0532,12.7,1.19,22.8,0.246,26.7,0.0604,29.1,–,–,0.021,16.6,2.04,25.6
CSc1ccc(NC(=O)CCl)cc1,–,> 10,–,> 10,–,> 10,–,> 10,–,> 10,–,> 10,–,> 10,–,6.23,–,> 10,–,> 10
CC(=O)OCCC/C(=C/c1cc2ccccc2c2ccccc12)[N+](=O)[O-],1.64,3,1.26,2.51,1.97,3.72,1.06,2.81,2.04,5.63,1.75,3.29,1.66,3.22,0.606,2.17,0.495,4.58,1.69,3.14
COc1ccc2c3c1OC1C4(CCC5C(C2)N(CC2CC2)CCC351)OCCO4 (stereo unspecified),–,> 100,–,> 100,–,> 100,–,> 100,–,> 100,–,> 100,–,> 100,–,> 100,–,> 100,–,> 100
O=C1c2ccccc2-c2c1c1ccc([N+](=O)[O-])cc1c(=O)n2CCN1CCOCC1,33.4,> 100,61,> 100,> 100,> 100,> 100,> 100,> 100,> 100,> 100,> 100,79.2,> 100,35.5,> 100,15.5,> 100,> 100,> 100
C=CC(=O)N1CCC(CNc2ncnc(N)c2-c2ccc(Oc3ccccc3)cc2)CC1,23.4,70.7,32.9,> 100,30.7,> 100,8.51,35.8,19.5,85.1,24.1,> 100,32.8,> 100,13.4,58.9,–,–,21.4,> 100
COc1ccc2cn3c4ccc(O)cc4[nH]c(=O)c3c2c1,0.0762,15.9,0.298,15.5,0.273,2.85,0.277,17.3,0.313,22.3,9.51,23.3,0.206,18.7,0.162,18.5,0.0556,3.87,2.19,8.08
COc1ccc(OC)c(-c2nc3sc(C)cn3c2/C=C2\C(=O)N(C)c3ccccc32)c1,28.7,> 100,29.2,81.8,21.9,70,22,66.5,29.8,> 100,34.1,> 100,26.4,94.7,17.9,47.9,1.89,18.5,48.3,> 100
Cn1c(=O)c2[nH]c(CCS)nc2n(C)c1=O,–,> 100,–,> 100,–,> 100,–,> 100,–,> 100,–,> 100,–,> 100,–,67.7,–,> 100,–,> 100
CN1CCC(n2cnc(-c3ccc(F)cc3)c2-c2ccnc(Nc3ccccc3)n2)CC1,1.14,> 25,10.4,> 25,3.95,> 25,3.04,> 13.1,18.3,> 25,8.12,> 25,16.1,> 25,7.22,24.8,–,–,2.34,> 25
CCSc1nc(N)c(C#N)c(-c2ccc(OC)c(OC)c2)c1C#N,> 50,> 50,30.7,> 50,–,–,5.85,43.6,–,–,–,–,24.7,> 50,–,–,11.8,37.6,49.6,> 50
COc1ccccc1C(=O)Nc1ccc(Cl)c(C(=O)OC(C)C)c1,–,28.4,–,> 100,–,88.2,–,> 100,–,> 100,–,> 100,–,> 100,–,> 100,–,–,–,> 100
COc1ccccc1CNC(=O)/C=C/c1ccc(O)c(O)c1,24.5,> 100,82.4,> 100,50.5,> 100,22.9,> 100,51.8,> 100,40,> 100,48.2,> 100,86.5,> 100,–,–,17.9,> 100
